Data published in patent US9926297B2, “Bicyclic AZA compounds as muscarinic M1 receptor and/or M4 receptor agonists” (Heptares Therapeutics Limited, priority 2014, dated 2018).

Key:
[1] = target: T1, human muscarinic M2 receptor (Homo sapiens, UniProt P08172); assay: Alphascreen Surefire phospho-ERK1/2 functional assay, M2; conditions: for Emax: CHO, read-out: % Emax cf. ACh, M2, CHO cells stably expressing human M2; for Emax / % Emax cf. ACh, M2: relative to ACh; for pEC50 M2 / % Emax cf. ACh, M2: CHO cells stably expressing human M2; for pEC50 M2: phospho-ERK1/2, * = variable results
T1 sequence (P08172 1-466): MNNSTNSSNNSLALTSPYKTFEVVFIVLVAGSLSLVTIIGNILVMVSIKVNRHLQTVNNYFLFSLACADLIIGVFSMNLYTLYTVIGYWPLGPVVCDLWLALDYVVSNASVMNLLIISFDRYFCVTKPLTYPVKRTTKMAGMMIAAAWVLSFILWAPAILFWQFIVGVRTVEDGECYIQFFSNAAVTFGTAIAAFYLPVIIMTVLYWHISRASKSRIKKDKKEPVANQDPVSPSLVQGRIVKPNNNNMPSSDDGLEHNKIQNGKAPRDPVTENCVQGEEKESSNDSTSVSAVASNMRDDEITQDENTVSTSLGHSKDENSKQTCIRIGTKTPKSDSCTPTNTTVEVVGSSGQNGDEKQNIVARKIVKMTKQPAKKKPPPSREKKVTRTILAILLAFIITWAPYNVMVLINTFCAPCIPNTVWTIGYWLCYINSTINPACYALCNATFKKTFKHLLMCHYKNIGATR

[2] = target: T2, human muscarinic M4 receptor (Homo sapiens, UniProt P08173); assay: Alphascreen Surefire phospho-ERK1/2 functional assay, M4; type: cell-based; conditions: for EC50 / % Emax cf. ACh, M4: CHO cells stably expressing human M4; for EC50: phospho-ERK1/2, * = variable results, read-out: pEC50 M4 (converted); for Emax: CHO, read-out: % Emax cf. ACh, M4, CHO cells stably expressing human M4; for Emax / % Emax cf. ACh, M4: relative to ACh
T2 construct: expressed in transfected cells
T2 sequence (P08173 1-479): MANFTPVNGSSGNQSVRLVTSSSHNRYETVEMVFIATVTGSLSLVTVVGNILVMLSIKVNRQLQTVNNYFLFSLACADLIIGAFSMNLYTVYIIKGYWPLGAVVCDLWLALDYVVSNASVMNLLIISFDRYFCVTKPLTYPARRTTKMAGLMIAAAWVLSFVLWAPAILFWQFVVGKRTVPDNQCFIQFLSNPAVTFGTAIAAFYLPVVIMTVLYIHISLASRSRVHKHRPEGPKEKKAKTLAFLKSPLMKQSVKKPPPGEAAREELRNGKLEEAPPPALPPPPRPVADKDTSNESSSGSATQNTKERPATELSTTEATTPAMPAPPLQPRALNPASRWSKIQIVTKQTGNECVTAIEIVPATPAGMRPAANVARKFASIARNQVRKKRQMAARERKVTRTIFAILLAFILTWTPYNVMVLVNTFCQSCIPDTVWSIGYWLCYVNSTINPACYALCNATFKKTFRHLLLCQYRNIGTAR

[3] = target: human muscarinic M3 receptor (Homo sapiens, UniProt P20309); assay: Alphascreen Surefire phospho-ERK1/2 functional assay, M3; conditions: for Emax: CHO, read-out: % Emax cf. ACh, M3, CHO cells stably expressing human M3; for Emax / % Emax cf. ACh, M3: relative to ACh; for EC50: pEC50 M3, CHO cells stably expressing human M3; for EC50 / pEC50 M3: phospho-ERK1/2, * = variable results; for pEC50 M3 / % Emax cf. ACh, M3: CHO cells stably expressing human M3
[4] = target: T3, human muscarinic M1 receptor (Homo sapiens, UniProt P11229); assay: Alphascreen Surefire phospho-ERK1/2 functional assay, M1; type: cell-based; conditions: for EC50 / % Emax cf. ACh, M1: CHO cells stably expressing human M1; for EC50: phospho-ERK1/2, * = variable results, read-out: pEC50 M1 (converted); for Emax: CHO, read-out: % Emax cf. ACh, M1, CHO cells stably expressing human M1; for Emax / % Emax cf. ACh, M1: relative to ACh
T3 sequence (P11229 1-460): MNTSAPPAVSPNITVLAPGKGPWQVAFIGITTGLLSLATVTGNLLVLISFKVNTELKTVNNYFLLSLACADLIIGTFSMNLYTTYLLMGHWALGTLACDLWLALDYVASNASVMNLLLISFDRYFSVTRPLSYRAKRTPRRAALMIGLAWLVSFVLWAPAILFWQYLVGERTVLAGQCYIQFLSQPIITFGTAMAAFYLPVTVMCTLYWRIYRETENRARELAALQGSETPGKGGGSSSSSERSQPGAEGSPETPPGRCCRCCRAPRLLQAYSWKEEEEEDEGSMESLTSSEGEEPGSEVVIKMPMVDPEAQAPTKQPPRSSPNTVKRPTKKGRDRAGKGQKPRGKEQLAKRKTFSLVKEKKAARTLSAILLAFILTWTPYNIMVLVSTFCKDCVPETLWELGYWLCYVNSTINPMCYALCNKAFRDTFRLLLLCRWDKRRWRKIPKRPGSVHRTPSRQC

Chain of human muscarinic M3 receptor (P20309 whole entry): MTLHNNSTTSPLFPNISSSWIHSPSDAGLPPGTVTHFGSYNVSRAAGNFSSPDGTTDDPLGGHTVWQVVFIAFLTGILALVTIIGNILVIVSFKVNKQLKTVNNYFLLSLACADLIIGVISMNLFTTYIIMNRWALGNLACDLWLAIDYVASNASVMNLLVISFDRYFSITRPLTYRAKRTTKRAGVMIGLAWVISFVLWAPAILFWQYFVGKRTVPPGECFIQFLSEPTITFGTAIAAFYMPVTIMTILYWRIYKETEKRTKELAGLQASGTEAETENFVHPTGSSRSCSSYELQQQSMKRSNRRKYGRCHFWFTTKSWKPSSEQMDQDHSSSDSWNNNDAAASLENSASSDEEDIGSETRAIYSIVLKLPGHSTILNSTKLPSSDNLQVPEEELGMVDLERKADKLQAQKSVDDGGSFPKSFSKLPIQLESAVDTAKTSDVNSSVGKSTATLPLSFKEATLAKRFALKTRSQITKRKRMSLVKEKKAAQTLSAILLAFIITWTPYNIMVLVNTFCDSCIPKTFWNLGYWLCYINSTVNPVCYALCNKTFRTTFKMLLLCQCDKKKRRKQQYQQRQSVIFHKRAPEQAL

Row | EC50 [1] [nM] | Emax [1] [%] | EC50 [2] [nM] | Emax [2] [%] | Emax [3] [%] | EC50 [3] [nM] | EC50 [4] [nM] | Emax [4] [%] | pEC50 M2 [1] | % Emax cf. ACh, M2 [1] [%] | % Emax cf. ACh, M4 [2] [%] | pEC50 M3 [3] | % Emax cf. ACh, M3 [3] [%] | % Emax cf. ACh, M1 [4] [%] | Structure (SMILES)
1 | > 20000 | 10 | 20 | 102 | 5 | > 20000 | 126 | 97 | – | – | – | – | – | – | CCOC(=O)N1CCC2(CC(N3CCC(N4CC(F)(F)C[C@@H]4C)CC3)C2)C1 (single isomer, unassigned) [2-106 Isomer 2]
2 | > 20000 | 53 | 6.31 | 114 | 7 | > 20000 | 251 | 41 | – | – | – | – | – | – | CCOC(=O)N1CCC2(CC(N3CCC(C4CCCN4C(=O)NC)CC3)C2)C1 (single isomer, unassigned) [2-16 Isomer 2, ethyl 2-{4-[1-(methylcarbamoyl)pyrrolidin-2-yl]piperidin-1-yl}-6-azaspiro[3.4]octane-6-carboxylate]
3 | > 20000 | 3 | 12.6 | 110 | 2 | > 20000 | 398 | 87 | – | – | – | – | – | – | CCOC(=O)N1CCC2(CC(N3CCC([C@@H]4CCCN4CC(F)(F)F)CC3)C2)C1 (single isomer, unassigned) [2-69 Isomer 2]
4 | > 20000 | 8 | 316 | 93 | 29 | > 20000 | 316 | 114 | – | – | – | – | – | – | CCOC(=O)N1CCC2(CC(N3CCC(N4C(=O)OC[C@@H]4C(C)C)CC3)C2)C1 (single isomer, unassigned) [2-123 Isomer 2]
5 | – | – | 20 | – | – | – | > 20000 | – | < 4.7 | 5 | 65 | < 4.7 | 5 | 4 | CCOC(=O)N1CCC2(CC(N3CCC([C@@H]4CCCN4C(=O)NOC)CC3)C2)C1 (single isomer, unassigned) [2-33 Isomer 2]
6 | > 20000 | 7 | 31.6 | 61 | 8 | > 20000 | 158 | 32 | – | – | – | – | – | – | CCOC(=O)N1CCC2(CC(N3CCC(c4ccon4)CC3)C2)C1 (single isomer, unassigned) [1-43 Isomer 2, ethyl 2-[4-(1,2-oxazol-3-yl)piperidin-1-yl]-6-azaspiro[3.4]octane-6-carboxylate]
7 | 12600 | 27 | 126 | 49 | 5 | > 20000 | > 20000 | 11 | – | – | – | – | – | – | COC(=O)N1CCC2(CC(N3CCC([C@@H]4CCCN4c4ccccn4)CC3)C2)C1 (single isomer, unassigned) [2-78 Isomer 2]
8 | – | – | 251 | – | – | – | 3160 | – | < 4.7 | 3 | 58 | < 4.7 | 39 | 56 | CCOC(=O)N1CCC2(CC(N3CCC([C@@H]4CCCN4C(=O)N(C)OC)CC3)C2)C1 (single isomer, unassigned) [2-34 Isomer 2]
9 | > 20000 | 3 | 50.1 | – | 5 | > 20000 | 398 | – | – | – | 68 | – | – | 58 | CCOC(=O)N1CCC2(CC(N3CCC(C4CCCNC4=O)CC3)C2)C1 (single isomer, unassigned) [4-1 Isomer 4, ethyl 2-(2-oxo-3,4′-bipiperidin-1′-yl)-6-azaspiro[3.4]octane-6-carboxylate]
10 | 7940 | 34 | 158 | 82 | 1 | > 20000 | 1580 | 80 | – | – | – | – | – | – | COC(=O)N1CCC2(CC(N3CCC(c4nc(Cl)c(Cl)n4C)CC3)C2)C1 (single isomer, unassigned) [1-16 Isomer 2, methyl 2-[4-(4,5-dichloro-1-methyl-1H-imidazol-2-yl)piperidin-1-yl]-6-azaspiro[3.4]octane-6-carboxylate]
11 | > 20000 | 4 | 20 | 85 | 4 | > 20000 | 631 | 49 | – | – | – | – | – | – | CCOC(=O)N1CCC2(CC(N3CCC([C@@H]4CCCN4C(=O)CO)CC3)C2)C1 (single isomer, unassigned) [2-52 Isomer 2]
12 | > 20000 | 1 | 63.1 | 53 | 3 | > 20000 | > 20000 | 237 | – | – | – | – | – | – | CCOC(=O)N1CCC2(CC(N3CCC([C@@H]4CCCN4C(=O)OCCN(C)C)CC3)C2)C1 (single isomer, unassigned) [2-51 Isomer 2]
13 | > 20000 | 53 | 63.1 | 79 | 16 | > 20000 | 794 | 39 | – | – | – | – | – | – | CCOC(=O)N1CCC2(CC(N3CCC(C4CCCN4C=O)CC3)C2)C1 (single isomer, unassigned) [2-2 Isomer 2, ethyl 2-[4-(1-formylpyrrolidin-2-yl)piperidin-1-yl]-6-azaspiro[3.4]octane-6-carboxylate]
14 | > 20000 | 8 | 5.01 | 134 | 0 | > 20000 | 631 | 96 | – | – | – | – | – | – | CCOC(=O)N1CCC2(CC(N3CCC([C@@H]4CCCN4C(=O)NC4COC4)CC3)C2)C1 (single isomer, unassigned) [2-56 Isomer 2]
15 | > 20000 | 13 | 79.4 | 52 | 10 | > 20000 | 794 | 30 | – | – | – | – | – | – | CCOC(=O)N1CCC2(CC(N3CCC([C@@H]4CCCN4CC(=O)OC)CC3)C2)C1 (single isomer, unassigned) [2-72 Isomer 2]
16 | > 20000 | 8 | 15.8 | 111 | 8 | > 20000 | 79.4 | 102 | – | – | – | – | – | – | CCOC(=O)N1CCC2(CC(N3CCC(N4CCC[C@@H]4C(F)(F)F)CC3)C2)C1 (single isomer, unassigned) [2-104 Isomer 2]
17 | – | – | 20 | – | – | > 20000 | 316 | – | < 4.7 | 15 | 82 | – | 9 | 42 | CCOC(=O)N1CCC2(CC(N3CCC(N4CC(F)(F)C[C@@H]4C(C)O)CC3)C2)C1 (single isomer, unassigned) [2-109 Isomer 4]
18 | > 20000 | 54 | 15.8 | 100 | 3 | > 20000 | 398 | 46 | – | – | – | – | – | – | CCOC(=O)N1CCC2(CC(N3CCC(N4CC(F)(F)C[C@@H]4C(=O)OC)CC3)C2)C1 (single isomer, unassigned) [2-87 Isomer 2]
